Experimental data published in patent US20060127894A1, “Protein associated with cell growth, differentiation, and death” (Incyte Corporation, priority 2001, published 2006).

Tests used:
[1] = cited from earlier work
[2] = system: SEQ ID NO:45 expression in C3A cells; experiment: Microarray expression analysis of steroid-treated versus untreated C3A cells; type: cell-based, human
Description: Total RNA is isolated from tissue samples using the guanidinium thiocyanate method and poly(A)^+ RNA is purified using the oligo-(dT) cellulose method. Each poly(A)^+ RNA sample is reverse transcribed using MMLV reverse-transcriptase, 0.05 pg/μl oligo-(dT) primer (21 mer), 1×first strand buffer, 0.03 units/μL RNase inhibitor, 500 μM dATP, 500 μM dGTP, 500 μM dTTP, 40 μM dCTP, 40 μM dCTP-Cy3 (BDS) or dCTP-Cy5 (Amersham Biosciences). The reverse transcription reaction is performed in a […] containing 200 ng poly(A)^+ RNA with GEMBRIGHT kits (Incyte). Specific control poly(A)+ RNAs are synthesized by in vitro transcription from non-coding yeast genomic DNA. After incubation at 37° C. for 2 hr, each reaction sample (one with Cy3 and another with Cy5 labeling) is treated with […] of 0.5M sodium hydroxide and incubated for 20 minutes at 85° C. to the stop the reaction and degrade the RNA. Samples are purified using two successive CHROMA SPIN 30 gel filtration spin columns (CLONTECH Laboratories, Inc. (CLONTECH), Palo Alto Calif.) and after combining, both reaction samples are ethanol precipitated using 1 ml of glycogen (1 mg/ml), 60 ml sodium acetate, and 300 ml of 100% ethanol. The sample is then dried to completion using a SpeedVAC (Savant Instruments Inc., Holbrook N.Y.) and resuspended in 14 μl 5×SSC/0.2% SDS.
Sequences of the present invention are used to generate array elements. Each array element is amplified from bacterial cells containing vectors with cloned cDNA inserts. PCR amplification uses primers complementary to the vector sequences flanking the cDNA insert. Array elements are amplified in thirty cycles of PCR from an initial quantity of 1-2 ng to a final quantity greater than 5 μg. Amplified array elements are then purified using […]-400 (Amersham Biosciences).
Hybridization reactions contain 9 μl of sample mixture consisting of 0.2 μg each of Cy3 and Cy5 labeled cDNA synthesis products in 5×SSC, 0.2% SDS hybridization buffer. The sample mixture is heated to 65° C. for 5 minutes and is aliquoted onto the microarray surface and covered with an 1.8 cm^2 coverslip. The arrays are transferred to a waterproof chamber having a cavity just slightly larger than a microscope slide. The chamber is kept at 100% humidity internally by the addition of 140 μl of 5×SSC in a comer of the chamber. The chamber containing the arrays is incubated for about 6.5 hours at 60° C. The arrays are washed for 10 min at 45° C. in a first wash buffer (1×SSC, 0.1% SDS), three times for 10 minutes each at 45° C. in a second wash buffer (0.1×SSC), and dried.
Reporter-labeled hybridization complexes are detected with a microscope equipped with an Innova 70 mixed gas 10 W laser (Coherent, Inc., Santa Clara Calif.) capable of generating spectral lines at 488 nm for excitation of Cy3 and at 632 nm for excitation of CyS. The excitation laser light is focused on the array using a 20× microscope objective (Nikon, Inc., Melville N.Y.). The slide containing the array is placed on a computer-controlled X-Y stage on the microscope and raster-scanned past the objective. The 1.8 cm×1.8 cm array used in the present example is scanned with a resolution of 20 micrometers.
A grid is superimposed over the fluorescence signal image such that the signal from each spot is centered in each element of the grid. The fluorescence signal within each element is then integrated to obtain a numerical value corresponding to the average intensity of the signal. […]

[3] = system: human umbilical vein endothelial cells (HUVECs); conditions: cited from earlier work
[4] = system: SEQ ID NO:33 expression in BT-20 cells; experiment: Microarray expression analysis of BT-20 cells treated with EGF; type: cell-based, human; conditions: BT-20 breast carcinoma cells
Description: Total RNA is isolated from tissue samples using the guanidinium thiocyanate method and poly(A)^+ RNA is purified using the oligo-(dT) cellulose method. Each poly(A)^+ RNA sample is reverse transcribed using MMLV reverse-transcriptase, 0.05 pg/μl oligo-(dT) primer (21 mer), 1×first strand buffer, 0.03 units/μL RNase inhibitor, 500 μM dATP, 500 μM dGTP, 500 μM dTTP, 40 μM dCTP, 40 μM dCTP-Cy3 (BDS) or dCTP-Cy5 (Amersham Biosciences). The reverse transcription reaction is performed in a […] containing 200 ng poly(A)^+ RNA with GEMBRIGHT kits (Incyte). Specific control poly(A)+ RNAs are synthesized by in vitro transcription from non-coding yeast genomic DNA. […]
Sequences of the present invention are used to generate array elements. […] Array elements are amplified in thirty cycles of PCR from an initial quantity of 1-2 ng to a final quantity greater than 5 μg. […]
Reporter-labeled hybridization complexes are detected with a microscope equipped with an Innova 70 mixed gas 10 W laser (Coherent, Inc., Santa Clara Calif.) capable of generating spectral lines at 488 nm for excitation of Cy3 and at 632 nm for excitation of CyS. […]
A grid is superimposed over the fluorescence signal image such that the signal from each spot is centered in each element of the grid. […]

[5] = dose 10 μM, 1 hour of treatment
[6] = dose 10 μM, 3 hours of treatment

## 6α-methyl-17-hydroxyprogesterone [medroxyprogesterone]
[1]; greater than progesterone
  pharmacological activity relative to progesterone: about 15 times
[2]; [5]
  expression of SEQ ID NO:45 increased in drug-treated, as compared to untreated, C3A cells: at least two-fold
[2]; [6]
  expression of SEQ ID NO:45 increased in drug-treated, as compared to untreated, C3A cells: at least two-fold

## C[C@H]1C[C@H]2[C@@H]3CCC4=CC(=O)C=C[C@]4(C)[C@@]3(Cl)[C@@H](O)C[C@]2(C)[C@@]1(O)C(=O)CO [beclomethasone]
[1]; intranasal, greater than those produced by hydrocortisone
  anti-inflammatory and vasoconstrictive effects relative to hydrocortisone: 5000 times
[2]; dose 1 μM, 3 hours of treatment
  expression of SEQ ID NO:45 increased in drug-treated, as compared to untreated, C3A cells: at least two-fold
[2]; [5]
  expression of SEQ ID NO:45 increased in drug-treated, as compared to untreated, C3A cells: at least two-fold
[2]; [6]
  expression of SEQ ID NO:45 increased in drug-treated, as compared to untreated, C3A cells: at least two-fold

## TNF-α
[3]
  increase of cellular secretions of MCP-1 compared with untreated cells: 119 fold

## epidermal growth factor: a potent mitogen (NSDSECPLSHDGYCLHDGVCMYIEALDKYACNCVVGYIGERCQYRDLKWWELR; Epidermal growth factor; UniProt P01133 971-1023, looked up)
[4]
  expression of SEQ ID NO:33 down-regulated on treatment of BT-20 cells: at least two-fold
